Drawing on patent US12404289B2 (Gilead Sciences, Inc., priority 2020, dated 2025), this text covers EC50 for 20 compounds.

The first assay deals with Respiratory syncytial virus (RSV) strain A2. Put plainly: Hep-2 RSV2 384-well assay (EC50-HEP2-384). The assay is classed as cell-based. The following applies: HEp-2 cells, RSV A2, MOI=4, 4 days, Table 3.
The compound `C[C@H](NP(=O)(OC[C@H]1O[C@@](C#N)(c2ccc3c(N)ncnn23)[C@H](O)[C@@H]1O)Oc1ccc(C(C)(C)C)cc1)C(=O)OCC1CC1` (stereo partly drawn) [Example 101b, Cyclopropyl methyl ((((2R,3S,4R,5R)-5-(4-aminopyrrolo[2,1-f][1,2,4]triazin-7-yl)-5-cyano-3,4-dihydroxytetrahydrofuran-2-yl)methoxy)(4-(tert-butyl)phenoxy)phosphoryl)-L-alaninate] registered an EC50 of 79.2 nM. Same read-out and setting: then `CCC(CC)COC(=O)[C@H](C)NP(=O)(OC[C@H]1O[C@@](C#N)(c2ccc3c(N)ncnn23)[C@H](O)[C@@H]1O)Oc1cccc2c1CCCC2` (single isomer, unassigned) [Example 136], with 377 nM. `C[C@H](NP(=O)(OC[C@H]1O[C@@](C#N)(c2ccc3c(N)ncnn23)[C@H](O)[C@@H]1O)Oc1ccc(C(C)(C)C)cc1)C(=O)OC1CC2(CCCC2)C1` (stereo partly drawn) [Example 97b, Spiro[3.4]octan-2-yl ((((2R,3S,4R,5R)-5-(4-aminopyrrolo[2,1-f][1,2,4]triazin-7-yl)-5-cyano-3,4-dihydroxytetrahydrofuran-2-yl)methoxy)(4-(tert-butyl)phenoxy)phosphoryl)-L-alaninate] showed an EC50 of 106 nM. For the compound `CCC(=O)O[C@H]1[C@@H](OC(=O)CC)[C@](C#N)(c2ccc3c(N)ncnn23)O[C@@H]1COP(=O)(N[C@@H](C)C(=O)OCCC(C)(C)CC)Oc1ccccc1` (stereo partly drawn) [Example 105b, (2R,3R,4R,5R)-2-(4-aminopyrrolo[2,1-f][1,2,4]triazin-7-yl)-2-cyano-5-((((((S)-1-((3,3-dimethylpentyl)oxy)-1-oxopropan-2-yl)amino)(phenoxy)phosphoryl)oxy)methyl)tetrahydrofuran-3,4-diyl Dipropionate], the EC50 was 60.7 nM. Turning to `CC(C)C(=O)O[C@H]1[C@@H](OC(=O)C(C)C)[C@](C#N)(c2ccc3c(N)ncnn23)O[C@@H]1COP(=O)(N[C@@H](C)C(=O)OC1CC2(CCCC2)C1)Oc1ccc(C(C)(C)C)cc1` (stereo partly drawn) [Example 100b, (2R,3R,4R,5R)-2-(4-aminopyrrolo[2,1-f][1,2,4]triazin-7-yl)-5-((((4-(tert-butyl)phenoxy)(((S)-1-oxo-1-(spiro[3.4]octan-2-yloxy)propan-2-yl)amino)phosphoryl)oxy)methyl)-2-cyanotetrahydrofuran-3,4-diyl bis(2-methylpropanoate)], the EC50 was determined as 95.5 nM.

The assay is the same for the next values; noted with them: human respiratory syncytial virus, HEp-2, 96 h, HEp-2 cells, RSV A2, MOI=4, 4 days, Table 3.
With `COC(C)(C)COC(=O)[C@H](C)NP(=O)(OC[C@H]1O[C@@](C#N)(c2ccc3c(N)ncnn23)[C@H](OC(C)=O)[C@@H]1OC(C)=O)Oc1ccc(C(C)(C)C)cc1` (stereo partly drawn) [Example 131, (2R,3R,4R,5R)-2-(4-aminopyrrolo[2,1-f][1,2,4]triazin-7-yl)-5-((((4-(tert-butyl)phenoxy)(((S)-1-(2-methoxy-2-methylpropoxy)-1-oxopropan-2-yl)amino)phosphoryl)oxy)methyl)-2-cyanotetrahydrofuran-3,4-diyl Diacetate], a half-maximal effect (EC50) was put at 56.2 nM. `CCC(CC)COC(=O)[C@H](C)NP(=O)(OC[C@H]1O[C@@](C#N)(c2ccc3c(N)ncnn23)[C@H](OC(=O)C(C)C)[C@@H]1OC(=O)C(C)C)Oc1ccc(OC2CCCCC2)cc1` (stereo partly drawn) [Example 153, (2R,3R,4R,5R)-2-(4-aminopyrrolo[2,1-f][1,2,4]triazin-7-yl)-2-cyano-5-((((4-(cyclohexyloxy)phenoxy)(((S)-1-(2-ethylbutoxy)-1-oxopropan-2-yl)amino)phosphoryl)oxy)methyl)tetrahydrofuran-3,4-diyl bis(2-methylpropanoate)] registered an EC50 of 270 nM. Still for that read-out and setting: then `CCC(=O)O[C@H]1[C@@H](OC(=O)CC)[C@](C#N)(c2ccc3c(N)ncnn23)O[C@@H]1COP(=O)(N[C@@H](C)C(=O)OCC(C)(C)OC)Oc1ccc(C(C)(C)C)cc1` (stereo partly drawn) [Example 130, (2R,3R,4R,5R)-2-(4-aminopyrrolo[2,1-f][1,2,4]triazin-7-yl)-5-((((4-(tert-butyl)phenoxy)(((S)-1-(2-methoxy-2-methylpropoxy)-1-oxopropan-2-yl)amino)phosphoryl)oxy)methyl)-2-cyanotetrahydrofuran-3,4-diyl Dipropionate], with 52.8 nM; and `CCCOC(=O)[C@H](C)NP(=O)(OC[C@H]1O[C@@](C#N)(c2ccc3c(N)ncnn23)[C@H](O)[C@@H]1O)Oc1ccc(C(C)(C)C)cc1` (single isomer, unassigned) [Example 47a], with 41.6 nM; and `CCC(CC)COC(=O)[C@H](C)N[P@](=O)(OC[C@H]1O[C@@](C#N)(c2ccc3c(N)ncnn23)[C@H](OC(=O)C(C)C)[C@@H]1OC(=O)C(C)C)Oc1cccc2c1CCCC2` [Example 144, (2R,3R,4R,5R)-2-(4-aminopyrrolo[2,1-f][1,2,4]triazin-7-yl)-2-cyano-5-((((S)—(((S)-1-(2-ethylbutoxy)-1-oxopropan-2-yl)amino)((5,6,7,8-tetrahydronaphthalen-1-yl)oxy)phosphoryl)oxy)methyl)tetrahydrofuran-3,4-diyl bis(2-methylpropanoate)], with 780 nM. `CC(=O)O[C@H]1[C@@H](OC(C)=O)[C@](C#N)(c2ccc3c(N)ncnn23)O[C@@H]1COP(=O)(N[C@@H](C)C(=O)O[C@H]1CCOC1)Oc1ccc(C(C)(C)C)cc1` (stereo partly drawn) [Example 35, (2R,3R,4R,5R)-2-(4-aminopyrrolo[2,1-f][1,2,4]triazin-7-yl)-5-((((4-(tert-butyl)phenoxy)(((S)-1-oxo-1-(((S)-tetrahydrofuran-3-yl)oxy)propan-2-yl)amino)phosphoryl)oxy)methyl)-2-cyanotetrahydrofuran-3,4-diyl Diacetate] had an EC50 of 185 nM. Compound `CCOC(=O)[C@H](C)NP(=O)(OC[C@H]1O[C@@](C#N)(c2ccc3c(N)ncnn23)[C@H](O)[C@@H]1O)Oc1ccc(C23CC(C2)C3)cc1` (stereo partly drawn) [Example 41, Ethyl ((((2R,3S,4R,5R)-5-(4-aminopyrrolo[2,1-f][1,2,4]triazin-7-yl)-5-cyano-3,4-dihydroxytetrahydrofuran-2-yl)methoxy)(4-(bicyclo[1.1.1]pentan-1-yl)phenoxy)phosphoryl)-L-alaninate] registered an EC50 of 142 nM.

On to `C[C@H](NP(=O)(OC[C@H]1O[C@@](C#N)(c2ccc3c(N)ncnn23)[C@H](O)[C@@H]1O)Oc1ccc(C(C)(C)C)cc1)C(=O)OCc1ccccc1` (stereo partly drawn) [Example 57, Benzyl ((((2R,3S,4R,5R)-5-(4-aminopyrrolo[2,1-f][1,2,4]triazin-7-yl)-5-cyano-3,4-dihydroxytetrahydrofuran-2-yl)methoxy)(4-(tert-butyl)phenoxy)phosphoryl)-L-alaninate], for which the EC50 came out at 186 nM.

Take `CC(C)C(=O)O[C@H]1[C@@H](OC(=O)C(C)C)[C@](C#N)(c2ccc3c(N)ncnn23)O[C@@H]1CO[P@@](=O)(N[C@@H](C)C(=O)O[C@H]1CCOC1)Oc1ccc(C(C)(C)C)cc1` [Example 38, (2R,3R,4R,5R)-2-(4-aminopyrrolo[2,1-f][1,2,4]triazin-7-yl)-5-((((4-(tert-butyl)phenoxy)(((S)-1-oxo-1-(((S)-tetrahydrofuran-3-yl)oxy)propan-2-yl)amino)phosphoryl)oxy)methyl)-2-cyanotetrahydrofuran-3,4-diyl bis(2-methylpropanoate)]: the EC50 was 138 nM. Compound `CCOC(=O)[C@H](C)NP(=O)(OC[C@H]1O[C@@](C#N)(c2ccc3c(N)ncnn23)[C@H](OC(C)=O)[C@@H]1OC(C)=O)Oc1ccc(C(C)(C)C)cc1` (stereo partly drawn) [Example 157, (2R,3R,4R,5R)-2-(4-aminopyrrolo[2,1-f][1,2,4]triazin-7-yl)-5-((((4-(tert-butyl)phenoxy)(((S)-1-ethoxy-1-oxopropan-2-yl)amino)phosphoryl)oxy)methyl)-2-cyanotetrahydrofuran-3,4-diyl Diacetate] yielded an EC50 of 79.5 nM. Same read-out and setting: to `COC(C)COC(=O)[C@H](C)NP(=O)(OC[C@H]1O[C@@](C#N)(c2ccc3c(N)ncnn23)[C@H](OC(C)=O)[C@@H]1OC(C)=O)Oc1ccc(C(C)(C)C)cc1` (stereo partly drawn) [Example 161, (2R,3R,4R,5R)-2-(4-aminopyrrolo[2,1-f][1,2,4]triazin-7-yl)-5-((((4-(tert-butyl)phenoxy)(((2S)-1-(2-methoxypropoxy)-1-oxopropan-2-yl)amino)phosphoryl)oxy)methyl)-2-cyanotetrahydrofuran-3,4-diyl Diacetate] belongs 113 nM. In turn, `CCC(CC)COC(=O)[C@H](C)NP(=O)(OC[C@H]1O[C@@](C#N)(c2ccc3c(N)ncnn23)[C@H](OC(=O)C(C)C)[C@@H]1OC(=O)C(C)C)Oc1ccc(C#N)cc1` (stereo partly drawn) [Example 40, (2R,3R,4R,5R)-2-(4-aminopyrrolo[2,1-f][1,2,4]triazin-7-yl)-2-cyano-5-((((4-cyanophenoxy)(((S)-1-(2-ethylbutoxy)-1-oxopropan-2-yl)amino)phosphoryl)oxy)methyl)tetrahydrofuran-3,4-diyl bis(2-methylpropanoate)] showed an EC50 of 226 nM. In turn, `CC(=O)O[C@H]1[C@@H](OC(C)=O)[C@](C#N)(c2ccc3c(N)ncnn23)O[C@@H]1COP(=O)(N[C@@H](C)C(=O)OC1CCCCC1)Oc1ccc(C(C)(C)C)cc1` (stereo partly drawn) [Example 148, (2R,3R,4R,5R)-2-(4-aminopyrrolo[2,1-f][1,2,4]triazin-7-yl)-5-((((4-(tert-butyl)phenoxy)(((S)-1-(cyclohexyloxy)-1-oxopropan-2-yl)amino)phosphoryl)oxy)methyl)-2-cyanotetrahydrofuran-3,4-diyl Diacetate] showed an EC50 of 59.3 nM. `COCCOC(=O)[C@H](C)NP(=O)(OC[C@H]1O[C@@](C#N)(c2ccc3c(N)ncnn23)[C@H](OC(C)=O)[C@@H]1OC(C)=O)Oc1ccc(C(C)(C)C)cc1` (stereo partly drawn) [Example 150, (2R,3R,4R,5R)-2-(4-aminopyrrolo[2,1-f][1,2,4]triazin-7-yl)-5-((((4-(tert-butyl)phenoxy)(((S)-1-(2-methoxyethoxy)-1-oxopropan-2-yl)amino)phosphoryl)oxy)methyl)-2-cyanotetrahydrofuran-3,4-diyl Diacetate] displayed an EC50 of 78.2 nM.

The compound `COC(C)COC(=O)[C@H](C)NP(=O)(OC[C@H]1O[C@@](C#N)(c2ccc3c(N)ncnn23)[C@H](OC(=O)C(C)C)[C@@H]1OC(=O)C(C)C)Oc1ccc(C(C)(C)C)cc1` (stereo partly drawn) [Example 162, (2R,3R,4R,5R)-2-(4-aminopyrrolo[2,1-f][1,2,4]triazin-7-yl)-5-((((4-(tert-butyl)phenoxy)(((2S)-1-(2-methoxypropoxy)-1-oxopropan-2-yl)amino)phosphoryl)oxy)methyl)-2-cyanotetrahydrofuran-3,4-diyl bis(2-methylpropanoate)] displayed an EC50 of 72.5 nM.

What is called EC50 is the concentration giving half of the maximal effect. Lower therefore signals higher potency in that assay.
